Laboratory results: US9999609B2, “Methods for treating or preventing fatigue” (SK Biopharmaceuticals Co., Ltd., priority 2009, dated 2018)

Test system: male adult Sprague Dawley rats
Experiment: Sleep-wake organization (EEG/EOG/EMG) in rats after acute i.p. administration
Assay type: in vivo
Conditions: rats, mean ± s.e.m of 8 rats; for Duration Active wake / Duration Deep sleep / Duration Intemediate stage / Duration Light sleep / Duration Passive wake / Duration REM sleep: 16 h recording

COC(=O)[C@H]1[C@@H](OC(=O)c2ccccc2)C[C@@H]2CC[C@H]1N2C [Cocaine, cocaine]
Duration Active wake (1 mg/kg i.p.): 331.5 ± 41.5 min | Duration Deep sleep (1 mg/kg i.p.): 162.9 ± 26.3 min | Duration Intemediate stage (1 mg/kg i.p.): 6.7 ± 1.0 min | Duration Light sleep (1 mg/kg i.p.): 293.2 ± 26.3 min | Duration Passive wake (1 mg/kg i.p.): 69.8 ± 11.0 min | Duration REM sleep (1 mg/kg i.p.): 84.2 ± 8.1 min | Latency ISWS (1 mg/kg i.p.): 69.9 ± 51.2 min | Latency REM sleep (1 mg/kg i.p.): 74.3 ± 12.1 min | Latency dSWS (1 mg/kg i.p.): 79.3 ± 26.7 min | Shifts: Shift from ISWS to AW (1 mg/kg i.p.): 184.1 ± 48.1 number | Shifts: Shift from ISWS to PW (1 mg/kg i.p.): 128.6 ± 45.2 number | Shifts: Shift from REMS to AW (1 mg/kg i.p.): 74.5 ± 21.5 number | Shifts: Shift from REMS to PW (1 mg/kg i.p.): 17.0 ± 8.8 number | Shifts: Shift from dSWS to AW (1 mg/kg i.p.): 10.1 ± 5.6 number | Shifts: Shift from dSWS to PW (1 mg/kg i.p.): 66.6 ± 48.2 number | Duration Active wake (3 mg/kg i.p.): 324.8 ± 18.3 min | Duration Deep sleep (3 mg/kg i.p.): 172.6 ± 34.3 min | Duration Intemediate stage (3 mg/kg i.p.): 5.7 ± 0.6 min | Duration Light sleep (3 mg/kg i.p.): 303.2 ± 42.5 min | Duration Passive wake (3 mg/kg i.p.): 66.7 ± 8.9 min | Duration REM sleep (3 mg/kg i.p.): 76.7 ± 6.3 min | Latency ISWS (3 mg/kg i.p.): 41.5 ± 9.2 min | Latency REM sleep (3 mg/kg i.p.): 112.0 ± 12.2 min | Latency dSWS (3 mg/kg i.p.): 68.6 ± 7.6 min | Shifts: Shift from ISWS to AW (3 mg/kg i.p.): 218.5 ± 50.6 number | Shifts: Shift from ISWS to PW (3 mg/kg i.p.): 142.2 ± 48.5 number | Shifts: Shift from REMS to AW (3 mg/kg i.p.): 56.0 ± 16.4 number | Shifts: Shift from REMS to PW (3 mg/kg i.p.): 10.7 ± 6.9 number | Shifts: Shift from dSWS to AW (3 mg/kg i.p.): 10.2 ± 6.7 number | Shifts: Shift from dSWS to PW (3 mg/kg i.p.): 64.5 ± 42.6 number | Duration Active wake (10 mg/kg i.p.): 347.3 ± 16.5 min | Duration Deep sleep (10 mg/kg i.p.): 171.9 ± 23.8 min | Duration Intemediate stage (10 mg/kg i.p.): 6.3 ± 1.1 min | Duration Light sleep (10 mg/kg i.p.): 294.6 ± 24.4 min | Duration Passive wake (10 mg/kg i.p.): 55.0 ± 10.4 min | Duration REM sleep (10 mg/kg i.p.): 74.7 ± 7.5 min | Latency ISWS (10 mg/kg i.p.): 101.8 ± 6.9 min | Latency REM sleep (10 mg/kg i.p.): 192.1 ± 18.5 min | Latency dSWS (10 mg/kg i.p.): 138.8 ± 8.7 min | Shifts: Shift from ISWS to AW (10 mg/kg i.p.): 201.2 ± 53.6 number | Shifts: Shift from ISWS to PW (10 mg/kg i.p.): 132.6 ± 48.2 number | Shifts: Shift from REMS to AW (10 mg/kg i.p.): 52.3 ± 16.5 number | Shifts: Shift from REMS to PW (10 mg/kg i.p.): 9.2 ± 5.8 number | Shifts: Shift from dSWS to AW (10 mg/kg i.p.): 10.4 ± 6.2 number | Shifts: Shift from dSWS to PW (10 mg/kg i.p.): 37.6 ± 23.8 number
